# Patent publication US8916599B2, “1H-benz imidazole-5-carboxamides as anti-inflammatory agents” (Orexo AB, priority 2008, dated 2014)
# Biological target: T1, recombinant human mPGES-1 (Homo sapiens, UniProt O14684)
# T1 construct: made in house; host or cells: Rosetta E. coli (microsomal/membrane fraction)
# T1 sequence (O14684 1-152): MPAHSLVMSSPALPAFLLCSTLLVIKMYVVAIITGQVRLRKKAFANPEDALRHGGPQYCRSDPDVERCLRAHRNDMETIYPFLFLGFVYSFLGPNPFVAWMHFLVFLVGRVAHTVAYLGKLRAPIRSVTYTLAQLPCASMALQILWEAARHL
# Assay: mPGES-1 inhibition test (microsomes, PGH2 substrate, HTRF detection of PGE2)
# Assay type: biochemical
# Settings: inhibition of mPGES-1 at 1 μM (marked in cell)
# In short: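 Bacterial microsomes with GSH-containing phosphate buffer at pH 7.4 are exposed to test compounds for 25 minutes before a one-minute PGH2 conversion. The quenched, 750-fold diluted mixture is analysed by time-resolved FRET for PGE2.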
row,inhibition at 1 µM [%],SMILES
1,100,"O=C(Nc1ccc(Cl)c(F)c1)c1ccc2[nH]c(Nc3c(Cl)cccc3Cl)nc2c1 [Example 67, 2-(2,6-Dichloro-phenylamino)-1H-benzimidazole-5-carboxylic acid (4-chloro-3-fluoro-phenyl)-amide]"
2,96,"CC(C)Oc1cc2c(cc1C(=O)NC1CCC(C(F)(F)F)CC1)nc(Nc1c(Cl)ccc(Cl)c1F)n2C (stereo not drawn) [Example 644, 2-(3,6-Dichloro-2-fluoro-phenylamino)-6-isopropoxy-N-(4-trans-trifluoromethyl-cyclohex-1-yl)-1-methyl-1H-benzimidazole-5-carboxamide]"
3,100,"COc1cc2c(cc1C(=O)Nc1ccc(Br)cc1)nc(Nc1cc(F)ccc1C(F)(F)F)n2C [Example 642, 2-(5-Fluoro-2-trifluoromethyl-phenylamino)-N-(4-bromphenyl)-6-methoxy-1-methyl-1H-benzimidazol-5-carboxamide]"

# Same assay, conditions: inhibition of mPGES-1 at 10 μM
row,SMILES,inhibition at 10 µM [%]
1,"O=C(NCc1cccc(C(F)(F)F)n1)c1ccc2[nH]c(Nc3c(Cl)cccc3Cl)nc2c1 [Example 223, 2-(2,6-Dichloro-phenylamino)-1H-benzimidazole-5-carboxylic acid (6-trifluoromethyl-pyridin-2-ylmethyl)-amide]",87
2,"Cc1nc(NC(=O)c2ccc3[nH]c(Nc4c(Cl)cccc4Cl)nc3c2)ccc1Br [Example 76, 2-(2,6-Dichloro-phenylamino)-1H-benzimidazole-5-carboxylic acid (5-bromo-6-methyl-pyridin-2-yl)-amide]",97
3,"O=C(Nc1ccccc1)c1ccc2[nH]c(Nc3ccccc3C(F)(F)F)nc2c1 [Example 6, 2-(2-Trifluoromethyl-phenylamino)-1H-benzimidazole-5-carboxylic acid-phenylamide]",99
4,"O=C(Nc1c(Cl)cc(Cl)cc1Cl)c1ccc2[nH]c(Nc3c(Cl)cccc3Cl)nc2c1 [Example 313, 2-(2,6-Dichloro-phenylamino)-1H-benzimidazole-5-carboxylic acid (2,4,6-trichloro-phenyl)-amide]",99
5,"COc1cc2[nH]c(Nc3c(Cl)cccc3Cl)nc2cc1C(=O)NCc1ncccc1C(F)(F)F [Example 383, 2-(2,6-Dichlorophenylamino)-6-methoxy-N-((3-trifluoromethyl-pyridin-2-yl)-methyl)-1H-benzimidazole-5-carboxamide]",100
6,"O=C(Nc1ncccc1C(F)(F)F)c1ccc2[nH]c(Nc3c(Cl)cccc3Cl)nc2c1 [Example 190, 2-(2,6-Dichloro-phenylamino)-1H-benzimidazole-5-carboxylic acid (3-trifluoromethyl-pyridin-2-yl)-amide]",75
7,"COc1cc2[nH]c(Nc3c(Cl)cc(F)cc3Cl)nc2cc1C(=O)Nc1ccc(Br)cc1 [Example 581, 2-(2,6-Dichloro-4-fluoro-phenylamino)-6-methoxy-N-(4-bromo-phenyl)-1H-benzimidazole-5-carboxamide]",100
8,"O=C(Nc1cc(Cl)ccn1)c1cc(Br)c2[nH]c(Nc3c(Cl)cccc3Cl)nc2c1 [Example 500, 7-Bromo-N-(4-chloropyridin-2-yl)-2-(2,6-dichlorophenylamino)-1H-benzimidazole-5-carboxamide]",100
9,"O=C(Nc1ccc(Br)cc1)c1cc2nc(Nc3c(Cl)cc(F)cc3Cl)[nH]c2cc1OCC(F)(F)F [Example 582, 2-(2,6-Dichloro-4-fluoro-phenylamino)-N-(4-bromo-phenyl)-6-(2,2,2-trifluorethoxy)-1H-benzimidazole-5-carboxamide]",100
10,"O=C(Nc1cc(Cl)cc(Cl)c1)c1ccc2[nH]c(Nc3c(Cl)cccc3Cl)nc2c1 [Example 112, 2-(2,6-Dichloro-phenylamino)-1H-benzimidazole-5-carboxylic acid (3,5-dichloro-phenyl)-amide]",97
11,"Cc1ccc(NC(=O)c2ccc3[nH]c(Nc4c(Cl)cccc4Cl)nc3c2)nc1C [Example 498, 2-(2,6-Dichlorophenylamino)-N-(5,6-dimethylpyridin-2-yl)-1H-benzimidazole-5-carboxamide]",100
12,"O=C(Nc1cc(Cl)nc(Cl)c1)c1ccc2[nH]c(Nc3c(Cl)cccc3Cl)nc2c1 [Example 187, 2-(2,6-Dichloro-phenylamino)-1H-benzimidazole-5-carboxylic acid (2,6-dichloro-pyridin-4-yl)-amide]",98

# Other lines, results leading:
row,inhibition at 10 µM [%],SMILES
1,100,"Cn1c(Nc2c(Cl)cccc2Cl)nc2cc(C(=O)Nc3cc(Cl)ccn3)ccc21 [Example 210, 2-(2,6-Dichloro-phenylamino)-1-methyl-1H-benzimidazole-5-carboxylic acid (4-chloro-pyridin-2-yl)-amide]"
2,94,"Cc1cc(NC(=O)c2ccc3[nH]c(Nc4c(Cl)cccc4Cl)nc3c2)ncc1F [Example 189, 2-(2,6-Dichloro-phenylamino)-1H-benzimidazole-5-carboxylic acid (5-fluoro-4-methyl-pyridin-2-yl)-amide]"
3,96,"N[C@H]1C[C@H](n2c(Nc3c(Cl)cccc3Cl)nc3cc(C(=O)Nc4cc(Cl)ccn4)ccc32)C1 [Example 270, 2-(2,6-Dichloro-phenylamino)-1-(trans-3-amino-cyclobutyl)-1H-benzimidazole-5-carboxylic acid (4-chloro-pyridin-2-yl)-amide]"
4,75,"CC(C)NC(=O)c1cc(Br)c2c(c1)nc(Nc1c(Cl)cccc1Cl)n2C [Example 353, 7-Bromo-2-(2,6-dichloro-phenylamino)-1-methyl-1H-benzimidazole-5-carboxylic acid isopropylamide]"
5,100,"Cc1cc(C)nc(NC(=O)c2cc3nc(Nc4c(Cl)cccc4Cl)n(C)c3cc2F)c1 [Example 128, 2-(2,6-Dichloro-phenylamino)-6-fluoro-1-methyl-1H-benzimidazole-5-carboxylic acid (4,6-dimethyl-pyridin-2-yl)-amide]"
6,98,"Cn1c(Nc2c(Cl)cccc2Cl)nc2cc(C(=O)Nc3cc(C#N)ccn3)ccc21 [Example 524, N-(4-Cyanopyridin-2-yl)-2-(2,6-dichlorophenylamino)-1-methyl-1H-benzimidazole-5-carboxamide]"
7,86,"O=C(NC1CCCCC1C(F)(F)F)c1ccc2[nH]c(Nc3c(Cl)cccc3Cl)nc2c1 (stereo not drawn) [Example 228, 2-(2,6-Dichloro-phenylamino)-1H-benzimidazole-5-carboxylic acid (2-trifluoromethyl-cyclohexyl)-amide]"
8,100,"O=C(NCC1CCCCC1)c1ccc2[nH]c(Nc3c(Cl)cccc3Cl)nc2c1 [Example 288, 2-(2,6-Dichloro-phenylamino)-1H-benzimidazole-5-carboxylic acid cyclohexylmethyl-amide]"
9,99,"CCCC[C@H](C)NC(=O)c1cc2nc(Nc3c(Cl)cccc3Cl)n(C)c2cc1F [Example 450, (S)-2-(2,6-Dichlorophenylamino)-6-fluoro-N-(hexan-2-yl)-1-methyl-1H-benzimidazole-5-carboxamide]"
10,44,"CNC(=O)c1ccc(Nc2nc3cc(C(=O)Nc4ccc(Br)cc4)ccc3n2C)c(Cl)c1 [Example 540, N-(4-Bromophenyl)-2-(2-chloro-4-(methylcarbamoyl)-phenylamino)-1-methyl-1H-benzimidazole-5-carboxamide]"
11,97,"O=C(Nc1ccc(Br)cc1)c1cc2[nH]c(Nc3c(Cl)cccc3Cl)nc2cc1F [Example 144, 2-(2,6-Dichloro-phenylamino)-6-fluoro-3H-benzimidazole-5-carboxylic acid (4-bromo-phenyl)-amide]"
12,99,"CCn1c(Nc2c(Cl)cccc2Cl)nc2cc(C(=O)Nc3cc(Cl)ccn3)ccc21 [Example 277, 2-(2,6-Dichloro-phenylamino)-1-ethyl-1H-benzimidazole-5-carboxylic acid (4-chloro-pyridin-2-yl)-amide]"
13,100,"CCC1CCC(NC(=O)c2cc3nc(Nc4c(F)cccc4Cl)n(C)c3cc2F)CC1 (stereo not drawn) [Example 362, N-(4-Ethylcyclohexyl)-2-(2-chloro-6-fluorophenylamino)-6-fluoro-1-methyl-1H-benzimidazole-5-carboxamide]"
14,80,"Cc1ccnc(CNC(=O)c2cc3nc(Nc4c(Cl)cccc4Cl)n(C)c3cc2F)c1 [Example 534, 2-(2,6-Dichlorophenylamino)-6-fluoro-1-methyl-N-((4-methylpyridin-2-yl)methyl)-1H-benzimidazole-5-carboxamide]"
15,100,"Cn1c(Nc2c(Cl)cccc2Cl)nc2cc(C(=O)NCc3ncccc3C3CC3)c(F)cc21 [Example 422, N-((3-Cyclopropylpyridin-2-yl)methyl)-2-(2,6-dichlorophenylamino)-6-fluoro-1-methyl-1H-benzimidazole-5-carboxamide]"
16,61,"Cn1c(Nc2c(Cl)cccc2Cl)nc2cc(C(=O)NCc3ccncc3)ccc21 [Example 262, 2-(2,6-Dichloro-phenylamino)-1-methyl-1H-benzimidazole-5-carboxylic acid (2-pyridin-4-yl-methyl)-amide]"
17,100,"Cn1c(Nc2c(F)cccc2Cl)nc2cc(C(=O)NC3CCC(C(C)(C)C)CC3)c(F)cc21 (stereo not drawn) [Example 354, N-(4-tert.-Butylcyclohexyl)-2-(2-chloro-6-fluorophenylamino)-6-fluoro-1-methyl-1H-benzimidazole-5-carboxamide]"
18,97,"CC1(C)CCC(NC(=O)c2ccc3[nH]c(Nc4c(Cl)cccc4Cl)nc3c2)CC1 [Example 64, 2-(2,6-Dichloro-phenylamino)-1H-benzimidazole-5-carboxylic acid (4,4-dimethyl-cyclohexyl)-amide]"
